From US20110009332A1, “Therapeutic Treatment Of Wounds” (SOUTHWEST RESEARCH INSTITUTE, priority 2009, published 2011)
Where “and” joins values, the source holds several entries; their conditions need not be identical. Equal entries are not always repeated. Entries after “also recorded” stand apart in the source; their conditions may differ. Where a SMILES comes first, the peptide text is derived from it. The star is where a group is joined. Cbz = O=C(OCc1ccccc1)*; OtBu = CC(C)(C)O*

Columns and labels:
[1] = tested on: incisional wounds of Sprague-Dawley rats; assay: Incisional wound healing model: tensometry and wound thickness; format: in vivo
Text: (§1) Using a standard incisional wound healing model, two 6 cm linear incisions were made through the panniculus carnosum on the dorsal aspect of 10 to 12 week old male Sprague-Dawley rats 1 centimeter on either side of midline running cephalid to caudal using a prefabricated template. Three surgical clips were used to close the incision and serve as guides for sectioning on harvest day.
(§2) Rats were randomly assigned to 1 of 3 treatment groups, indentified by the treatment administered to the wound located on the left. All wounds located on the right, regardless of treatment group, received vehicle (100% DMSO) as a control. […] Treatment was administered by applying 100 micro liters into (at time of closure) or onto the wound every 24 hours for the first 48 hours beginning at the time of wound closure, totaling 3 doses per wound.
(§3) On days 7, 14 and 28 post-wounding, the rats were euthanized and the entire dorsal skin excised. Four 8 mm sample strips were cut perpendicular to the wounds, to incorporate both the treated wound and the adjacent vehicle wound. The sample strips were then cut in half, equidistance from the two parallel wounds, yielding a total of four samples per wound, and yielding a compliment vehicle wound for each treated sample. One cephalic and one caudle sample were immediately prepared for histology, with the remaining two strips immediately prepared for tensometry.
Prior to sample loading for testing by tensometry, the underlying subcutaneous fascia was removed to the level of the panniculus carnosum using sharp dissection, following a natural dissection plane. For the day 28 wounds, the 8 mm samples were divided into 4 mm strips prior to loading secondary to slippage issues encountered during the pilot study. Samples were loaded into a Lloyd Instrument materials testing system (model LRX plus, Fareham, Hampshire, UK) with a 50 N load cell, with the wounds perpendicular to the grips and pulled at a rate of 200 mm/min. Wound thickness, just superficial to epithelium and just deep to panniculus carnosum, was measured at the time of testing with digital calipers (Absolute Digimatic Caliper, Mitutoyo, Kawasaki, Kanagawa, Japan). The wound width was measured at a preload of 0.5N by obtaining the correlating still frame image from a hands free mounted video camera (HDR-SR1 Handycam® camcorder, Sony, San Diego, Calif.). These two measurements were then used to calculate the cross sectional area of the wounds and the subsequent tensile strength (N/mm^2).
(§4) A paired student's t-test was used for statistical comparisons between adjacent wounds. A tukey's comparison was used for statistical comparison of wounds between different rats. A Kruskal-Wallis test was used for comparing graded histology. A Chi square was used to determine statistical meaning of epithelial necrosis.

rat skin = assay: Tensile strength of rat skin after 28 days of treatment (Example 2); format: in vivo, rats; parameters: Tensile strength of rat skin, Mean: unit not given here; settings: for Tensile strength of rat skin, individual samples: 100 μl per wound site daily for 5 days, samples 1-5, in N/mm²; for Tensile strength of rat skin, individual samples / Tensile strength of rat skin, Mean: after 28 days; for Tensile strength of rat skin, Mean: control mean 3.12114
Method: Testing of PS-1 was performed in rats and was provided at 1% and 5% in DMSO. The rats received 100 μl per wound site. The compound was administered daily for 5 days and skin was collected at 7 days, 14 days and 28 days. The biomechanical tensile strength of the skin was measured. Table 2 illustrates the testing data after 28 days for a control sample without treatment, 1% PS-1 in DMSO and 5% PS-1 in DMSO.

[2] = tested on: incisional wounds of Sprague-Dawley rats; assay: Incisional wound healing model: histology; format: in vivo; settings: for Overall Dermal Collagen Response: histology score; for wounds presenting with some degree of epithelial hyperplasia: control rats 60%
Text: as §1, §2, §3
Histological samples were fixed in 10% formalin, routinely processed, embedded in paraffin, and sectioned at approximately 5 μm. Cross sections of skin were stained with hematoxylin and eosin (H&E) and Masson's Trichrome using routine methods. All slides were subjectively evaluated on an Olympus BX40 microscope (Olympus America, Center Valley, Pa.) by a board-certified veterinary pathologist blinded to the treatment groups. The following parameters were determined for each sample: (1) collagen density (0=no mature collagen, 1=loose, 2=intermediate, 3=dense); (2) collagen maturity (1=immature, 2=intermediate, 3=mature); (3) amount and type of inflammation present in the dermis (0=none, 1=minimal, 2=mild, 3=moderate, 4=severe); (4) epithelial hyperplasia (0=none, 1=minimal, 2=mild, 3=moderate, 4=severe); (5) amount of epidermal necrosis over wound (0=0%, 1=25%, 2=50%, 3=75%, 4=100). Images were captured using an Olympus BX41 microscope (Olympus America, Center Valley, Pa.) and an Olympus DP71 digital camera (Olympus America, Center Valley, Pa.). Captured images of Masson's Trichrome sections under a 4× objective were uploaded into ImageJ (NIH) in order to calculate the cross sectional area of immature collagen within day 28 wounds. For statistical purposes, samples were averaged to provide a single score in each parameter per wound.
as §4

EFT400-Epidermis = assay: Skin thickness upon addition of PS-1 (EPIDERMFT EFT-400 tissue samples, in vitro); format: cell-based; settings: for EFT400-Epidermis thickness, Trial 1: control 61; for EFT400-Epidermis thickness, Trial 3: control 66.22; for EFT400-Epidermis thickness, Trial 2: control 73.73
Method: Tissue samples were received and equilibrated for treatment. Media was retained for enzyme-linked immunosorbent assay (ELISA) using an EPIDERMFT kit, product number EFT-400. On the second day, PS-1 treatment was added to the samples, wherein the media was exchanged with compound in 4 ml. More specifically, three samples were maintained as control samples and included DMSO at a concentration of 62 μm/10 ml, with no added PS-1 treatment, 0.1 μM (0.620/10 ml) was added to three samples, 1 μM (0.620/10 ml) was added to three samples, and 10 μM (0.620/10 ml) was added to three samples.
The samples were left to incubate on days 3-5 and on day 6, the media was exchanged again. On the seventh day, tissue samples were removed and conditioned media was saved for ELISA. The samples were then measured using […].
FIG. 2 illustrates changes in the epidermis thickness versus the amount of PS-1 added to the assays and the supporting data is presented in Table 1 below. […] FIGS. 3 through 5 illustrate the difference in thickness as between the control samples and the 10 μl/ml samples at 10× magnification and 40× magnification.

Question: What does the source list for `CC[C@H](C)[C@H](NC(=O)OCc1ccccc1)C(=O)N[C@@H](CCC(=O)OC(C)(C)C)C(=O)N[C@@H](C)C(=O)N[C@H](C=O)CC(C)C` [PS-1, Z-Ile-Glu(OBu^t)-Ala-Leu-H] (Cbz-IE(OtBu)AL-aldehyde)?
Answer: normalization of wound thickness (in words) ([1]; after PS-1 treatment): normalized faster; tensile strength vs untreated wounds (in words) ([1]; day 7 post-wounding, high dose (5% w/w in DMSO), p=0.0223): significantly lower; tensile strength vs untreated wounds (in words) ([1]; day 7 post-wounding, low dose (1% w/w in DMSO), p=0.0121): significantly lower; tensile strength, differences between wounds (in words) ([1]; day 14 post-wounding, all wounds): no significant differences in tensile strength; wound thickness vs untreated control wounds (in words) ([1]; day 28, 1% PI, p=0.057): thinner than untreated control wounds, but just lacked significance; wound thickness vs untreated control wounds (in words) ([1]; day 28, 5% PI, p=0.013): significantly thinner; tensile strength vs untreated wounds (in words) ([1]; day 28 post-wounding, 1% PI): no significant difference; tensile strength vs untreated wounds (in words) ([1]; day 28 post-wounding, 5% PI, p=0.0269): significantly increased tensile strength; Tensile strength of rat skin, individual samples (rat skin; 1% PS-1 in DMSO): 3.707 and 3.47 and 3.655 and 4.169 and 4.476; Tensile strength of rat skin, Mean (rat skin; 1% PS-1 in DMSO): 3.895; Tensile strength of rat skin, individual samples (rat skin; 5% PS-1 in DMSO): 4.067 and 4.379 and 3.805 and 5.042 and 5.192; strength of rat skin tissue (in words) (rat skin; 5% PS-1 in DMSO, 28 days, FIG. 6): relatively stronger tissue; Tensile strength of rat skin, Mean (rat skin; 5% PS-1 in DMSO): 4.497; Overall Dermal Collagen Response ([2]; PS-1 1% treated wounds, Day 7, control 0.8 ± 0.3): 0.8 ± 0.3; Overall Dermal Collagen Response ([2]; PS-1 1% treated wounds, Day 14, control 1.9 ± 0.3): 2.1 ± 0.3; Overall Dermal Collagen Response ([2]; PS-1 1% treated wounds, Day 28, control 2.6 ± 0.5): 2.9 ± 0.3; Overall Dermal Collagen Response ([2]; PS-1 5% treated wounds, Day 7, control 0.8 ± 0.3): 0.7 ± 0.3; Overall Dermal Collagen Response ([2]; PS-1 5% treated wounds, Day 14, control 1.9 ± 0.3): 2.0 ± 0.0; Overall Dermal Collagen Response ([2]; PS-1 5% treated wounds, Day 28, control 2.6 ± 0.5): 2.8 ± 0.3; accumulation of neutrophils in the dermis (in words) ([2]; day 14, most notable in rats receiving 1% PI): nearly extinct; wounds presenting with some degree of epithelial hyperplasia ([2]; day 28, 1% PI rats): 8 % of wounds; wounds presenting with some degree of epithelial hyperplasia ([2]; day 28, 5% PI rats): 20 % of wounds; macrophage and lymphocyte accumulates (in words) ([2]; day 28, most notably low dose rat wounds, FIG. 20): continued to decline; histology finding in the subcutaneous tissue beneath the panniculus carnosum (in words) ([2]; wounds receiving direct administration of the PI, seemingly dose dependent): foreign body reaction; EFT400-Epidermis thickness, Trial 1 (EFT400-Epidermis; 0.1 μM PS-1): 69.47 microns; EFT400-Epidermis thickness, Trial 3 (EFT400-Epidermis; 0.1 μM PS-1): 78.82 microns; EFT400-Epidermis thickness, Trial 2 (EFT400-Epidermis; 0.1 μM PS-1): 61.85 microns; EFT400-Epidermis thickness, Trial 1 (EFT400-Epidermis; 1 μM PS-1): 59.13 microns; EFT400-Epidermis thickness, Trial 3 (EFT400-Epidermis; 1 μM PS-1): 61.6 microns; EFT400-Epidermis thickness, Trial 2 (EFT400-Epidermis; 1 μM PS-1): 54.09 microns; EFT400-Epidermis thickness, Trial 1 (EFT400-Epidermis; 10 μM PS-1): 106.31 microns; EFT400-Epidermis thickness, Trial 3 (EFT400-Epidermis; 10 μM PS-1): 100.16 microns; EFT400-Epidermis thickness, Trial 2 (EFT400-Epidermis; 10 μM PS-1): 96.2 microns; thickness of the resultant epidermis in vitro (in words) (EFT400-Epidermis; addition of 10 μm, compared with the other samples): relatively significant increase in the thickness; stratum granulosum formation (in words) (EFT400-Epidermis; treated samples vs control samples, FIGS. 3-5): relatively well formed stratum granulosum; also recorded: relatively better developed stratum granulosum
